According to patent publication US20230242585A1, “IMMUNOMODULATORS” (Bristol-Myers Squibb Company, priority 2020, published 2023):
Starred links: 1 amine or outer side, 2 acyl side, 3 side chain; linkers in the order of their positions; H or OH if unused. Positions of bridges follow the written chain, without caps; N, C: chain ends. Non-standard residues stand in square brackets, D forms with d. Residues, ends and D or L forms follow the SMILES beside them. X47 = O=C([C@H](CNCc1ccccc1O[C@@H]1O[C@H](CO)[C@@H](O)[C@H](O)[C@H]1O)N[*:1])[*:2]; X59 = O=C([C@H](CCNC[C@H](O)[C@@H](O)[C@H](O)[C@H](O)CO)N[*:1])[*:2]; X58 = O=C([C@H](CNC[C@H](O)[C@@H](O)[C@H](O)[C@H](O)CO)N[*:1])[*:2]; X1 = O=C([C@H](CNC[C@H](O)[C@H](O)[C@H](O)[C@H](O)CO)N[*:1])[*:2]; X34 = O=C([C@H](CCNC[C@H](O)[C@@H](O)[C@@H](O)CO)N[*:1])[*:2]; X33 = O=C([C@H](CNC[C@H](O)[C@@H](O)[C@@H](O)CO)N[*:1])[*:2]; Trp(1-CH2COOH) = N[C@@H](Cc1cn(CC(=O)O)c2ccccc12)C(=O)O; X57 = COc1cc2cccc(OC)c2cc1CNCC[C@H](N[*:1])C(=O)[*:2]; X36 = COc1cc2cccc(OC)c2cc1CNC[C@H](N[*:1])C(=O)[*:2]; X16 = O=C([C@H](CCNCC(O)C(O)C(O)CO)N[*:1])[*:2]; X15 = O=C([C@H](CNCC(O)C(O)C(O)CO)N[*:1])[*:2]; Hyp = O=C(O)[C@@H]1C[C@@H](O)CN1; NMeNle = CCCC[C@H](NC)C(=O)O; NMeA = CN[C@@H](C)C(=O)O; Dab = NCC[C@H](N)C(=O)O

Target: T1, PD-1/PD-L1 (Homo sapiens, UniProt Q9NZQ7)
T1 construct: TVMV protease site (linker) (C); made in house; host or cells: HEK293T cells
T1 sequence (Q9NZQ7 18-239): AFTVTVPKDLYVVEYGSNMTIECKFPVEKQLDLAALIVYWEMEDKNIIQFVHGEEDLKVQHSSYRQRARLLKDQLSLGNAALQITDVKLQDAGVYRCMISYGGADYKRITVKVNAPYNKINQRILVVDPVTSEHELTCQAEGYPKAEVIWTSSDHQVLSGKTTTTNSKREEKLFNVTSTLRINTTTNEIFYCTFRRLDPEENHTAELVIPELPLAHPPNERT
Assay: PD-1/PD-L1 Homogenous Time-Resolved Fluorescence (HTRF) binding assay
Settings: PD-L1-His 10 nM, PD-1-Ig 20 nM
From the text: The ability of the compounds of formula (I) to bind to PD-L1 was investigated using a PD-1/PD-L1 Homogenous Time-Resolved Fluorescence (HTRF) binding assay.
The interaction of PD-1 and PD-L1 can be assessed using soluble, purified preparations of the extracellular domains of the two proteins. The PD-1 and PD-L1 protein extracellular domains were expressed as fusion proteins with detection tags, for PD-1, the tag was the Fc portion of Immunoglobulin (PD-1-Ig) and for PD-L1 it was the 6 histidine motif (PD-L1-His). All binding studies were performed in an HTRF assay buffer consisting of dPBS supplemented with 0.1% […] bovine serum albumin and 0.05% (v/v) Tween-20. For the h/PD-L1-His binding assay, inhibitors were pre-incubated with PD-L1-His (10 nM final) for 15 m in 4 µl of assay buffer, followed by addition of PD-1-Ig (20 nM final) in 1 µl of assay buffer and further incubation for 15 m. HTRF detection was achieved using europium crypate-labeled anti-Ig (1 nM final) and allophycocyanin (APC) labeled anti-His (20 nM final). Antibodies were diluted in HTRF detection buffer and 5 µl was dispensed on top of the binding reaction. The reaction mixture was allowed to equilibrate for 30 minutes and the resulting signal (665 nm/620 nm ratio) was obtained using an EnVision fluorometer. Additional binding assays were established between the human proteins PD-1-Ig/PD-L2-His (20 & 5 nM, respectively) and CD80-His/PD-L1-Ig (100 & 10 nM, respectively).
Recombinant Proteins: Human PD-1 (25-167) with a C-terminal human Fc domain of immunoglobulin G (Ig) epitope tag [hPD-1 (25-167)-3S-IG] and human PD-L1 (18-239) with a C-terminal His epitope tag [hPD-L1(18-239)-TVMV-His] were expressed in HEK293T cells and purified sequentially by ProteinA affinity chromatography and size exclusion chromatography. Human PD-L2-His and CD80-His was obtained through commercial sources.
Table 1 lists the IC50 values for representative examples of this disclosure measured in the PD-1/PD-L1 Homogenous Time-Resolved Fluorescence (HTRF) binding assay.

SMILES	IC50
CCCC[C@H]1C(=O)N(C)[C@@H](CCCC)C(=O)N[C@@H](CC(C)C)C(=O)N[C@H](C(=O)NCC(N)=O)CSCC(=O)N[C@@H](Cc2ccc(O)cc2)C(=O)N(C)[C@@H](C)C(=O)N[C@@H](CC(N)=O)C(=O)N2CCC[C@H]2C(=O)N[C@@H](CNCc2cc3c(OC)cccc3cc2OC)C(=O)N[C@@H](CC(C)C)C(=O)N2C[C@H](O)C[C@H]2C(=O)N[C@@H](Cc2c[nH]c3ccccc23)C(=O)N[C@@H](CCNCc2cc3c(OC)cccc3cc2OC)C(=O)N[C@@H](Cc2cn(CC(=O)O)c3ccccc23)C(=O)N1C [Example 1011] ({CH2CO}-Y[NMeA]NP[X36]L[Hyp]W[X57][Trp(1-CH2COOH)][NMeNle][NMeNle]LCG-NH2; thioether N-14)	7 nM
CCCC[C@H]1C(=O)N(C)[C@@H](CCCC)C(=O)N[C@@H](CC(C)C)C(=O)N[C@H](C(=O)NCC(N)=O)CSCC(=O)N[C@@H](Cc2ccc(O)cc2)C(=O)N(C)[C@@H](C)C(=O)N[C@@H](CC(N)=O)C(=O)N2CCC[C@H]2C(=O)N[C@@H](CNCc2ccccc2O[C@@H]2O[C@H](CO)[C@@H](O)[C@H](O)[C@H]2O)C(=O)N[C@@H](CC(C)C)C(=O)N2C[C@H](O)C[C@H]2C(=O)N[C@@H](Cc2c[nH]c3ccccc23)C(=O)N[C@@H](CCN)C(=O)N[C@@H](Cc2cn(CC(=O)O)c3ccccc23)C(=O)N1C [Example 1007] ({CH2CO}-Y[NMeA]NP[X47]L[Hyp]W[Dab][Trp(1-CH2COOH)][NMeNle][NMeNle]LCG-NH2; thioether N-14)	12 nM
CCCC[C@H]1C(=O)N(C)[C@@H](CCCC)C(=O)N[C@@H](CC(C)C)C(=O)N[C@H](C(=O)NCC(N)=O)CSCC(=O)N[C@@H](Cc2ccc(O)cc2)C(=O)N(C)[C@@H](C)C(=O)N[C@@H](CC(N)=O)C(=O)N2CCC[C@H]2C(=O)N[C@@H](CNC[C@H](O)[C@@H](O)[C@@H](O)CO)C(=O)N[C@@H](CC(C)C)C(=O)N2C[C@H](O)C[C@H]2C(=O)N[C@@H](Cc2c[nH]c3ccccc23)C(=O)N[C@@H](CCNC[C@H](O)[C@@H](O)[C@@H](O)CO)C(=O)N[C@@H](Cc2cn(CC(=O)O)c3ccccc23)C(=O)N1C [Example 2004] ({CH2CO}-Y[NMeA]NP[X33]L[Hyp]W[X34][Trp(1-CH2COOH)][NMeNle][NMeNle]LCG-NH2; thioether N-14)	6.7 nM
CCCC[C@H]1C(=O)N(C)[C@@H](CCCC)C(=O)N[C@@H](CC(C)C)C(=O)N[C@H](C(=O)NCC(N)=O)CSCC(=O)N[C@@H](Cc2ccc(O)cc2)C(=O)N(C)[C@@H](C)C(=O)N[C@@H](CC(N)=O)C(=O)N2CCC[C@H]2C(=O)N[C@@H](CNCC(O)C(O)C(O)CO)C(=O)N[C@@H](CC(C)C)C(=O)N2C[C@H](O)C[C@H]2C(=O)N[C@@H](Cc2c[nH]c3ccccc23)C(=O)N[C@@H](CCNCC(O)C(O)C(O)CO)C(=O)N[C@@H](Cc2cn(CC(=O)O)c3ccccc23)C(=O)N1C (stereo partly drawn) [Example 2001] ({CH2CO}-Y[NMeA]NP[X15]L[Hyp]W[X16][Trp(1-CH2COOH)][NMeNle][NMeNle]LCG-NH2; thioether N-14)	7.8 nM

Second part, the molecule after the results:

IC50	SMILES
5.3 nM	CCCC[C@H]1C(=O)N(C)[C@@H](CCCC)C(=O)N[C@@H](CC(C)C)C(=O)N[C@H](C(=O)NCC(N)=O)CSCC(=O)N[C@@H](Cc2ccc(O)cc2)C(=O)N(C)[C@@H](C)C(=O)N[C@@H](CC(N)=O)C(=O)N2CCC[C@H]2C(=O)N[C@@H](CNC[C@H](O)[C@@H](O)[C@H](O)[C@H](O)CO)C(=O)N[C@@H](CC(C)C)C(=O)N2C[C@H](O)C[C@H]2C(=O)N[C@@H](Cc2c[nH]c3ccccc23)C(=O)N[C@@H](CCNC[C@H](O)[C@@H](O)[C@H](O)[C@H](O)CO)C(=O)N[C@@H](Cc2cn(CC(=O)O)c3ccccc23)C(=O)N1C [Example 2032] ({CH2CO}-Y[NMeA]NP[X58]L[Hyp]W[X59][Trp(1-CH2COOH)][NMeNle][NMeNle]LCG-NH2; thioether N-14)
5.1 nM	CCCC[C@H]1C(=O)N(C)[C@@H](CCCC)C(=O)N[C@@H](CC(C)C)C(=O)N[C@H](C(=O)NCC(N)=O)CSCC(=O)N[C@@H](Cc2ccc(O)cc2)C(=O)N(C)[C@@H](C)C(=O)N[C@@H](CC(N)=O)C(=O)N2CCC[C@H]2C(=O)N[C@@H](CNC[C@H](O)[C@H](O)[C@H](O)[C@H](O)CO)C(=O)N[C@@H](CC(C)C)C(=O)N2C[C@H](O)C[C@H]2C(=O)N[C@@H](Cc2c[nH]c3ccccc23)C(=O)N[C@@H](CCN)C(=O)N[C@@H](Cc2cn(CC(=O)O)c3ccccc23)C(=O)N1C [Example 2007] ({CH2CO}-Y[NMeA]NP[X1]L[Hyp]W[Dab][Trp(1-CH2COOH)][NMeNle][NMeNle]LCG-NH2; thioether N-14)
